In patent publication US20230277483A1, “COMPOSITIONS AND METHODS TO TREAT INFLAMMATION” (University of Iowa Research Foundation, priority 2022, published 2023):

Key:
[1] = tested on: human gingival fibroblasts (HGF); experiment: Proinflammatory cytokines after Pg-LPS challenge (qRT-PCR, ELISA, antibody array); type: cell-based
Protocol: Sg metabolites modulate proinflammatory cytokines in human periodontal associated cells in vitro. Sg were cultured in a total of 40 ml DMEM for 24 hrs. After 200 μl of Sg suspension reached 0.2 at OD600 value in a 96-well plate, the Sg metabolites were collected by centrifugation at 3000 g for 10 min and then filtered through a 0.22 μm filter. No toxicity of Sg metabolites was detected using an MTT assay on primary human bone marrow mesenchymal stromal cells (BMSCs) and primary human gingival fibroblasts (HGF) (data no shown). The modulation of Sg metabolites on inflammatory cytokines was tested using human monocyte-derived macrophages (MDM) and HGF. The MDM were generated by inducing a human macrophage cell line (THP-1) using PMA at 10 ng/ml. The MDM at 2×10^6 cells/per well and HGF at 2×10^4 cells/per well were cultured in 24-well plates using DMEM with 10% FBS and 1% PS. The Sg metabolites at 1 and 5% v/v were added and incubated for 24 hrs before challenging with Pg-LPS at 100 ng/ml.
L-Norleucine as well as other metabolites modulate proinflammatory cytokines in macrophages and HGF. L-Norleucine was obtained commercially (Sigma) and dissolved in DMEM. Mouse macrophages and human HGF were cultured with DMEM supplemented with different concentrations of L-Norleucine and subsequently challenged with Pg-LPS at 100 ng/ml.
Human monocyte-derived macrophages (MDM) using THP-1 cells and HGF were cultured in a 24-well plate with DMEM and challenged with Pg-LPS at 100 ng/ml.
(§1) In addition, freshly isolated epidydimal white adipose tissues (eWAT) from mice on a HFD for 16 weeks were minced and cultured in 24-well plates and treated with HCA at 0.5 and 1.0 μM in DMEM/F-12 containing 10% cosmic calf serum (CCS) and 1% penicillin-streptomycin (basal growth media, BGM). […] These preliminary data are strong evidence that Sg metabolites have the potential to modulate host inflammatory responses and attenuate inflammation.
HCA promotes proliferation of health related bacteria and inhibits proliferation and attachment of periodontopathogenic bacteria. Promoting the growth of health-related commensal bacteria while inhibiting proliferation and attachment of pathogenic bacteria may be effective at preventing or treating periodontal inflammation. To determine if HCA has an effect on the growth properties of commensal bacteria and periodontopathogens, HCA at different concentrations was added to aerobic culture of S. mitis and S. oralis and anaerobic culture of T. denticola as described in our published manuscript (see detail in Shu et al, Journal of Periodontology, 2022). FIGS. 18A-C summarize the functions of HCA on the proliferation of specific commensal and pathogenic bacteria. […] Furthermore, the function of HCA on P. gingivalis attachment, a key parameter of adhesion and biofilm formation by periodontopathogenic bacteria, was investigated. […] Attachment measurements of P. gingivalis were performed based on our published studies (see detail in Shu et al, Journal of Periodontology, 2022). […] To test the biocompatibility and anti-inflammatory properties of HCA, human monocyte-derived macrophages (MDM) and gingival fibroblasts (HGF) were prepared as described in our previous studies. The cells were then treated with HCA from 0.1 to 50 μM. No toxicity was observed after treatment with different concentrations of HCA in either cell type using an MTT assay (FIGS. 19A and B, left column). The anti-inflammatory function of HCA on MDM and HGF after exposure to P. gingivalis lipopolysaccharide (PG-LPS) was investigated. […] HCA mitigates inflammation and affects the composition of microbiomes in vivo. Recent studies investigated whether HCA modulates periodontal inflammation using a mouse model. To induce periodontal inflammation, a total of 1 μl Pg-LPS at 10 μg/μl was directly injected twice a week into the interdental region between maxillary molars of C57BL/6J mice using a Hamilton1700 series syringe according to our previously published studies. […]

[2] = tested on: epidydimal white adipose tissues (eWAT); experiment: eWAT explants from mice on a HFD for 16 weeks; type: cell-based, mouse; conditions: HCA at 0.5 and 1.0 μM; 16 hours post treatment
Protocol: as §1

Compound: O=C(O)CCCCCO [HCA, 6-hydroxycaproic acid]
- transcripts of IL-1β, IL-6, and IL-8 ([1]; HCA at 0.1 μM, 6 hours following PG-LPS challenge at 0.1 μg/mL): significantly downregulated
- protein levels of IL-6 and IL-8 ([1]; HCA at 0.1 μM, HGF lysate, after 24 hrs): significantly reduced
- transcripts of IL-1β, 6, and 8 ([1]; HCA at 0.1 and 1.0 μM, Pg-LPS at 100 ng/ml, after 6 hrs): significantly downregulated
- proinflammatory cytokines (transcripts of IL-1β, 6 and 8) ([1]; at 0.1 μg after Pg-LPS challenge): modulate
- protein level of IL-6 in cultured media [2]: significantly reduced
- transcripts of IL-6, IL-1β, and Nos2 [2]: significantly reduced
